# From PubChem BioAssay (NCI)
#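 Briefly, cells in 96-well plates were exposed to five compound concentrations for 48 h, and endpoints were estimated by linear interpolation. At the TGI there is no net growth.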
# Legend:
# Assay in all cases: growth of human tumour cells (NCI), 48 h
# RPMI-8226 leukemia = test system: RPMI-8226 leukemia
# HS 578T breast = test system: HS 578T breast
# DU-145 prostate = test system: DU-145 prostate
# A549 NSCLC = test system: A549 NSCLC
# COLO 205 colon = test system: COLO 205 colon
# NCI-H460 lung = test system: NCI-H460 lung
# SW-620 colon = test system: SW-620 colon
# IGROV1 ovarian = test system: IGROV1 ovarian
# EKVX NSCLC = test system: EKVX NSCLC
# SK-MEL-2 melanoma = test system: SK-MEL-2 melanoma
# HOP-92 NSCLC = test system: HOP-92 NSCLC
# NCI-H23 lung = test system: NCI-H23 lung
# SF-539 CNS = test system: SF-539 CNS
# SK-MEL-28 melanoma = test system: SK-MEL-28 melanoma
# CAKI-1 renal = test system: CAKI-1 renal
# TK-10 renal = test system: TK-10 renal
# T-47D breast = test system: T-47D breast
# SF-268 CNS = test system: SF-268 CNS
# HOP-62 NSCLC = test system: HOP-62 NSCLC
# HCC-2998 colon = test system: HCC-2998 colon
# SNB-75 CNS = test system: SNB-75 CNS
# M14 melanoma = test system: M14 melanoma
# LOX IMVI melanoma = test system: LOX IMVI melanoma
# 786-0 renal = test system: 786-0 renal
# A498 renal = test system: A498 renal
# MDA-MB-231 breast = test system: MDA-MB-231 breast
# MOLT-4 leukemia = test system: MOLT-4 leukemia
# SR leukemia = test system: SR leukemia
# OVCAR-5 ovarian = test system: OVCAR-5 ovarian
# NCI-H522 lung = test system: NCI-H522 lung
# SNB-19 CNS = test system: SNB-19 CNS
# BT-549 breast = test system: BT-549 breast
# UO-31 renal = test system: UO-31 renal
# HCT-116 colon = test system: HCT-116 colon
# NCI/ADR-RES ovarian = test system: NCI/ADR-RES ovarian
# K-562 leukemia = test system: K-562 leukemia
# HT29 colon = test system: HT29 colon
# SN12C renal = test system: SN12C renal
# OVCAR-8 ovarian = test system: OVCAR-8 ovarian
# SK-OV-3 ovarian = test system: SK-OV-3 ovarian
# UACC-62 melanoma = test system: UACC-62 melanoma
# MCF7 breast = test system: MCF7 breast
# PC-3 prostate = test system: PC-3 prostate
# U251 CNS = test system: U251 CNS
# ACHN renal = test system: ACHN renal
# MALME-3M melanoma = test system: MALME-3M melanoma
# OVCAR-4 ovarian = test system: OVCAR-4 ovarian
# RXF 393 renal = test system: RXF 393 renal
# SF-295 CNS = test system: SF-295 CNS
# NCI-H226 lung = test system: NCI-H226 lung
# SK-MEL-5 melanoma = test system: SK-MEL-5 melanoma
# MDA-MB-435 = test system: MDA-MB-435
# HL-60(TB) leukemia = test system: HL-60(TB) leukemia
structure (smiles),measurement,setting,value
COc1cccc(-c2cc(=O)c3ccc(C)nc3[nH]2)c1,TGI,RPMI-8226 leukemia,1780 nM
same,TGI,HS 578T breast,> 100 µM
same,TGI,DU-145 prostate,3.7 µM
same,TGI,A549 NSCLC,> 100 µM
same,TGI,COLO 205 colon,247 nM
same,TGI,NCI-H460 lung,> 100 µM
same,TGI,SW-620 colon,> 100 µM
same,TGI,IGROV1 ovarian,> 95.1 µM
same,TGI,EKVX NSCLC,> 100 µM
same,TGI,SK-MEL-2 melanoma,> 100 µM
same,TGI,HOP-92 NSCLC,3.85 µM
same,TGI,NCI-H23 lung,> 100 µM
same,TGI,SF-539 CNS,921 nM
same,TGI,SK-MEL-28 melanoma,> 100 µM
same,TGI,CAKI-1 renal,> 81.8 µM
same,TGI,TK-10 renal,> 100 µM
same,TGI,T-47D breast,> 100 µM
same,TGI,SF-268 CNS,> 89.7 µM
same,TGI,HOP-62 NSCLC,> 64.6 µM
same,TGI,HCC-2998 colon,2120 nM
same,TGI,SNB-75 CNS,49.6 nM
same,TGI,M14 melanoma,> 100 µM
same,TGI,LOX IMVI melanoma,> 100 µM
same,TGI,786-0 renal,> 100 µM
same,TGI,A498 renal,2340 nM
same,TGI,MDA-MB-231 breast,> 100 µM
same,TGI,MOLT-4 leukemia,> 94.7 µM
same,TGI,SR leukemia,50.3 nM
same,TGI,OVCAR-5 ovarian,> 100 µM
same,TGI,NCI-H522 lung,> 100 µM
same,TGI,SNB-19 CNS,> 100 µM
same,TGI,BT-549 breast,> 39.7 µM
same,TGI,UO-31 renal,> 100 µM
same,TGI,HCT-116 colon,> 38.1 µM
same,TGI,NCI/ADR-RES ovarian,> 100 µM
same,TGI,K-562 leukemia,65.6 nM
same,TGI,HT29 colon,> 100 µM
same,TGI,SN12C renal,> 100 µM
same,TGI,OVCAR-8 ovarian,> 100 µM
same,TGI,SK-OV-3 ovarian,> 60.6 µM
same,TGI,UACC-62 melanoma,> 100 µM
same,TGI,MCF7 breast,> 22.9 µM
same,TGI,PC-3 prostate,> 42 µM
same,TGI,U251 CNS,> 100 µM
same,TGI,ACHN renal,> 100 µM
same,TGI,MALME-3M melanoma,> 100 µM
same,TGI,OVCAR-4 ovarian,> 100 µM
same,TGI,RXF 393 renal,> 100 µM
same,TGI,SF-295 CNS,> 100 µM
same,TGI,NCI-H226 lung,291 nM
same,TGI,SK-MEL-5 melanoma,2470 nM
same,TGI,MDA-MB-435,33.5 nM
same,TGI,HL-60(TB) leukemia,53.2 nM
